Test results taken from patent US12193994B2, “Combination of a cell therapy and a gamma secretase inhibitor” (Juno Therapeutics, Inc., priority 2017, dated 2025).

Legend:
[1] = system: RPMI-8226 human multiple myeloma xenograft; type: in vivo
Protocol: Anti-tumor effects following administration of anti-BCMA CAR T cells and a gamma secretase inhibitor compound, LY3039478, each, individually, and in combination, were assessed in a RPMI-8226 human multiple myeloma xenograft mouse model. The anti-BCMA CAR-expressing T cells were generated as described in Example 2.
NOD.Cg.PrkdescidIL2rgtm1 Wjl/SzJ (NSG) mice were injected subcutaneously (s.c.) with 1E+07 RPMI-8226 cells modified to express GFP and firefly luciferase (RPMI-8226 ffluc), and tumor volume was allowed to increase over the course of 25 days, the 25th day being designated “day 0” in this study. Animals were divided into 8 groups, and each group received one of the following treatments: (1) vehicle only, (2) LY3039478 (3 mg/kg) only, (3) Mock T cells (not expressing the CAR) (3.00E+06 T cells per mouse) and vehicle, (4) Mock T cells (3.00E+06 T cells per mouse) and LY3039478 (3 mg/kg), (5) anti-BCMA CAR+ T cells (1.00E+06 CAR+ cells per mouse) and vehicle, (6) anti-BCMA CAR+ T cells (1.00E+06 CAR+ cells per mouse) and LY3039478 (3 mg/kg), (7) anti-BCMA CAR+ T cells (3.00E+06 CAR+ cells per mouse) and vehicle, or (8) anti-BCMA CAR+ T cells (3.00E+06 CAR+ cells per mouse) and LY3039478 (3 mg/kg). In each group, LY3039478 or vehicle was delivered by mouth (p.o.) at day-1 and at day zero (0) and every other day (e.o.d.) up to day 21. Where applicable, T cells were administered by a single intravenous (i.v.) injection on day 0.
CAR+ T cells in blood and in tumor were assessed on days 7, […], 21, and 28 by flow cytometry using antibodies specific for cell surface markers and a reagent specific to the anti-BCMA CAR. Animal survival was monitored throughout the study.
The presence of CAR+ T cells in the blood was monitored over the course of the study (from blood drawn on days 7, 14, 21 and 28 post CAR-T cell administration). White blood cells from blood samples were stained with various reagents to detect various markers on the surface of immune cells, including T cells, and expression of the CAR (including a reagent specific for the CAR and a reagent specific for a transduction marker encoded by the CAR vector).
Tumor digests were also analyzed to determine the number of CD4+ and CD8+ CAR+ T cells in tumors following the various treatment conditions. […] Serum BCMA was also assessed according to treatment condition.

[2] = system: OPM2 or RPMI-8226 target cells; assay: Cytokine production by anti-BCMA CAR-T cells co-cultured with target cells +/- LY3039478; type: cell-based, human; conditions: 24 hours co-culture, vs absence of LY3039478
Protocol: (§1) The production of cytokines by anti-BCMA CAR-T cells in the presence or absence of LY3039478 was assessed by monitoring cytokine levels in the supernatants of co-cultures of CAR-T cells with BCMA-expressing target cells. CAR-T cells generated as described in this Example above were cultured with either OPM2 or RPMI-8226 target cells in the absence of LY3039478 or in the presence of LY3039478 at concentrations of 0.1 nM, 1 nM, 10 nM, 100 nM, 1000 nM, 10000 nM or 100000 nM (the range covering the estimated human pharmacokinetic range is shown by the boxes in FIGS. 3A-3D). Culture supernatants were harvested after 24 hours, and IFNγ and IL-2 were measured from the culture supernatants.

[3] = system: OPM2 target cells; assay: Similar study: concentration dependence of cytokine production by anti-BCMA CAR-T cells; type: cell-based; conditions: Homo sapiens, OPM-2; OPM2, one exemplary donor, IFN-gamma (FIG. 3E); read-out: increasing cytokine production by anti-BCMA CAR-T cells, IC50
Protocol: as §1
A similar study was carried out to further assess the effects of different concentrations of LY3039478, including concentrations within the estimated Cmax/Cmin for the inhibitor, on the ability of anti-BCMA CAR-T cells generated as described in this Example 2 above to produce cytokines following co-culture with OPM2 target cells.

[4] = system: OPM2 or RPMI-8226 target cells; assay: Cytolytic activity of anti-BCMA CAR-T cells co-cultured with target cells +/- LY3039478 (IncuCyte); type: cell-based, human
Excerpt: In this study, to generate anti-BCMA CAR-expressing T cells, CD4+ and CD8+ T cells were isolated by immunoaffinity-based enrichment from leukapheresis samples from two healthy donor subjects and one myeloma patient. Isolated T cells were activated and transduced with a viral vector encoding an anti-BCMA CAR. The CAR contained an scFv antigen-binding domain specific for BCMA having a VH domain and a VL domain with amino acid sequences set forth in SEQ ID NOS: 24 and 25, respectively, a spacer, a spacer having an amino acid sequence set forth in SEQ ID NO:31, a CD28 transmembrane region, a 4-1BB costimulatory signaling region and a CD3-zeta derived intracellular signaling domain. The nucleic acid construct encoding the CAR also included a truncated receptor sequence for use as a transduction marker, separated from the CAR sequence by a self-cleaving T2A sequence.
Anti-BCMA CAR-T cells generated as described in this Example above were cultured at 37° C. with either OPM2 or RPMI-8226 target cells at an effector to target (E:T) ratio of 0.3:1. The target cells were labeled with NucLight Red (NLR), to permit tracking of target cells by microscopy. Cultures were incubated in the absence of LY3039478 or in the presence of LY3039478 at concentrations of 0.1 nM, 1 nM, 10 nM, 100 nM, 1000 nM, 10000 nM or 100000 nM (the range covering the estimated human pharmacokinetic range is shown by the boxes in FIGS. 3A-3D). As a control, target cells were incubated with LY3039478 but without culture with CAR-T cells. Cytolytic activity was assessed by measuring the loss of viable target cells after about 150 hours, as determined by red fluorescent signal (using the IncuCyte® Live Cell Analysis System, Essen Bioscience). The area under the curve for killing observed during the culture period (˜150 hours) was determined. Percent lysis (% killing) was determined by normalizing the AUC for killing to cultures incubated without the inhibitor.

[5] = no CAR+ T cells, LY3039478 3 mg/kg p.o. alone or with Mock T cells 3.00E+06

SMILES: C[C@H](NC(=O)CCC(F)(F)F)C(=O)N[C@@H]1C(=O)N(CCO)c2ncccc2-c2ccccc21 [LY3039478, 4,4,4-trifluoro-N-[(1S)-2-[[(7S)-5-(2-hydroxyethyl)-6-oxo-7H-pyrido[2,3-d][3]benzazepin-7-yl]amino]-1-methyl-2-oxo-ethyl]butanamide]
- Day 65 Survival % [1, 5]: 0%
- Median Survival [1, 5]: 22.5 days
- Number of deaths [1, 5]: 10
- surface BCMA MFI on RPMI-8226 tumor cells (tumor digests, flow cytometry) ([1]; presence of LY3039478, days 7 and 15): increased
- peripheral blood count of CD4+ or CD8+ T cells that did not express the anti-BCMA CAR ([1]; treated with or without LY3039478): No changes
- production of IFN-gamma in supernatant [2]: increased
- production of IL-2 in supernatant [2]: increased
- IC50 [3]: 0.1 to 0.25 nM
- cytolytic activity of anti-BCMA CAR T cells (% killing) ([4]; 0.1 nM to 100000 nM, E:T 0.3:1, about 150 hours, myeloma patient-derived CAR-T, OPM2 and RPMI-8226): increased the cytolytic activity
- detrimental effects on CAR T cell function ([4]; 100 μM LY3039478): No detrimental effects
- CAR-T function ([4]; CAR-T cells derived from the other donors): increase in CAR-T function
- target survival ([4]; LY3039478 alone without CAR-T cells): No differences
